# According to patent US20080131432A1, “Method of treating the chemotoxic effects of chemotherapeutic drugs on brain tissue” (University of Kentucky Research Foundation, priority 2005, published 2008):
# Entries after “also recorded” stand apart in the source; their conditions may differ. Where a name gives a salt, the structure may show the parent alone.
# Tests used:
# TNF α [1] = test: TNF α levels in serum (mouse TNF-α ELISA); format: in vivo
# Method: Mice were treated with 20 mg/kg ADR or saline as control. Blood samples were collected at 1, 3, 6, 9, 24 hours and allowed to clot at 2-8° C. overnight. Serum samples were used to measure TNF α levels, according to the mouse enzyme-linked immunosorbent assay following the manufacturers' instructions (mouse TNF-α/TNFSF1A immunoassay, R&D Systems, Minneapolis, MN). The TNF α concentration in the sample was calculated from a recombinant mouse TNF α standard curve. The minimum detection limit is typically less than 5.1 pg/mL.
# 8-week-old male B6C3 mice (25-30 g) were kept under standard conditions. Mice were injected with a single intraperitoneal (i.p.) treatment with adriamycin (doxorubicin hydrochloride, 20 mg/kg), TNF-α, anti-mouse TNF-antibody (40 ng/kg), dipropylenetriamine NONOate (DPTA NONOate, […]), lipopolysaccharide (LPS 1 mg/kg), NG-nitro-L-arginine-methyl esther (L-NAME, 10 mg/kg) or pre-immune IgG.
# Mice were treated with 20 mg/kg ADR, TNF-α, anti-mouse TNF-antibody, dipropylenetriamine NONOate, lipopolysaccharide, NG-nitro-L-arginine-methyl esther or pre-immune IgG, as well as saline as control. Blood samples were collected at 3 hours after ADR treatment and allowed to clot at 2-8° C. overnight. Serum samples were used to measure TNF levels, according to the mouse enzyme-linked immunosorbent assay following the manufacturers' instructions (mouse TNF-α/TNFSF1A immunoassay, R&D Systems, Minneapolis, Minn.). The TNF concentration in the sample was calculated from a recombinant mouse TNF standard curve. The minimum detection limit is typically less than 5.1 pg/mL.
# TNF α [2] = test: Immunofluorescence of TNF α localization in neurons of cortex and hippocampus (MAP2 co-staining); format: in vivo, mouse; conditions: 3 hours after 20 mg/kg ADR, vs saline; hydrochloride
# Method: Brain tissue slices were fixed in 4% paraformaldehyde for 15 minutes, air dried, and washed with PBS. Non-specific proteins were blocked in blocking serum, consisting of 3% normal donkey's serum, and 0.3% Triton x-100 in PBS, and incubated at room temperature for 30 minutes. After blocking, slices were incubated with primary anti-TNF α (Upstate, Lake Placid, N.Y.), and anti-MAP2 antibody (Chemicon, Temecula, Calif.) was used as a neuronal marker, in order to study the location of TNF α in neurons of cortical and hippocampal regions. The sections were kept in a humidified box at 4° C. overnight. Tissues were washed three times with PBS and then were incubated for 1 hour with donkey antibody-conjugated secondary antibodies coated with fluorescent dyes. Excess secondary antibodies were removed by washing three times in PBS and once with deionized H2O. Tissue slides were mounted with mounting medium (Vectashield, HOURS-100, Vector Laboratories, Burlingame, Calif.). Photomicrographs were obtained using a Leica confocal fluorescence microscope (Leica Microsystems Inc., Bannockburn, Ill., USA).
# iNOS mRNA = iNOS mRNA expression in brain tissues (RT-PCR); format: in vivo, mouse; conditions: wild-type mice, 3 hours after treatment, vs saline controls
# Method: At 3 hours after treatment, mice were anesthetized and perfused via cardiac puncture with 0.1 M PBS, pH 7.4. The MRNA was isolated using the Micro-FastTrack 2.0 Kit (Invitrogen, Groningen, Netherlands) according to the manufacturer's instructions. The purified MRNA (5 μg) was subjected to reverse-transcription into first strand cDNA in each 20 μL of reaction mixture using the SuperScript III First-Strand Synthesis System for RT-PCR (Invitrogen) according to the manufacturer's instruction. A 25 μL PCR reaction contained 5 μL first strand cDNA, 0.1 U Taq DNA polymerase (Invitrogen), 10 mM 10×PCR buffer, 1.5 mM MgCl2, 2.5 mM dNTP and 10 pmol of each specific primer. PCR samples were subjected to the following conditions: 35 cycles for iNOS (94° C.: 1 minute; 65° C.: 1 minute; 72° C.: 1 minute), 32 cycles for β-actin (94° C.: […]; 55° C.: 30 s; 72° C.: 10 minutes), on a thermocycle (Perkin-Elmer). The primers with the target gene sequences were synthesized by Invitrogen. The primer sequence iNOS was 5′-CTGATGGTCAAGATCCAG-A-GGTCT-3′ (forward) and 5′-[…]-CTCT-3′(reverse), and the primer for β-actin was 5′-TGTTAC-CAACTGGGACGACA-3′ (forward) and 5′-CTGGGTCATCTT-TTCACCGT-3′ (reverse). After amplification, PCR products were subjected to 1% agarose gel electrophoresis, and visualized by ethidium bromide staining. The relative density of bands was analyzed under ultraviolet light (Bio-Rad). Experiments were repeated three times for reproducibility.
# MnSOD = test: Nitration of MnSOD (immunoprecipitation and western blot); format: in vivo, mouse; conditions: hydrochloride
# Method: Solubilized isolated mitochondrial proteins (500 μg) in 500 μL RIPA buffer (9.1 mM Na2HPO4, 1.7 mM NaH2PO4, 150 mM NaCl, 0.5% sodium deoxycholate, 1% v/v Nonidet P40, 0.1% SDS, pH 7.2) were incubated for 16 hours at 4° C. with 10 μg/mL anti-nitrotyrosine antibody (Cayman Chemical, Ann Arbor, Mich., USA) or polyclonal anti-MnSOD antibody (Upstate Biotechnology). Immune complexes were precipitated with 50 μL protein A/G-Agarose. Immunocomplexes were collected by centrifugation at 1500 g for 5 minutes at 4° C., and then washed four times with RIPA buffer. Immunoprecipitated samples were recovered by resuspending in 50 μL 2×sample loading buffer, heated to 95° C. for 5 minutes, and immediately fractionated by reducing SDS-PAGE in 12.5% gels. […] Immunoreactivities of the MnSOD nitrated protein bands were detected by ECL (Amersham Phamacia Biotech) as described by the manufacturer. Nitration of MnSOD was quantified using an akaline phosphatase-linked secondary antibody (Sigma), as described previously (Sultana et al. 2004), and evaluated by densitometric analysis used a Bio-Rad densitometer (Bio-Rad Laboratories, Hercules, Calif., USA).
# [3] = seventy-two hours after a single intraperitoneal injection of ADR; cited from earlier work
smiles,measurement,setting,value
"COc1cccc2c1C(=O)c1c(O)c3c(c(O)c1C2=O)C[C@@](O)(C(=O)CO)C[C@@H]3O[C@H]1C[C@H](N)[C@H](O)[C@H](C)O1 [ADR, Doxorubicin hydrochloride]",Time course of increased serum TNF α,"TNF α [1]; 20 mg/kg ADR, blood at 1, 3, 6, 9, 24 hours, hydrochloride",detectable as early as 1 hour and were sustained throughout a 24 hour period; also recorded: increased at the earliest time point examined
same,TNF-α level in serum (circulating TNF-α),"TNF α [1]; iNOSKO mice, 3 hours after treatment",significantly elevated
same,TNF α level in serum (circulating TNF α),"TNF α [1]; wild-type mice, 3 hours after single i.p. treatment, vs saline control, hydrochloride",significantly higher; also recorded: significantly elevated
same,TNF α in neurons of cortex,TNF α [2],clearly were increased
same,TNF α in neurons of hippocampus,TNF α [2],clearly were increased
same,iNOS mRNA levels in brain tissues,iNOS mRNA,significantly increased
same,"Expression of immunoprecipitated MnSOD protein, control vs ADR-treated brain mitochondria",MnSOD; immunoprecipitation with anti-MnSOD antibody,no difference in expression; also recorded: No significant difference
same,Nitrated MnSOD (nitrotyrosine in MnSOD) in brain mitochondria,"MnSOD; wild-type mice, 3 hours after ADR 20 mg/kg",an increase of nitrated MnSOD; also recorded: significant increase in nitration of MnSOD; also recorded: significantly increased protein nitration
same,Levels of protein oxidation and lipid peroxidation in brain tissues,[3],significant increase
